The values below come from PubChem BioAssay AID248 (DTP/NCI, 2004).

The structures appear in SMILES notation. Several values for one entry are separate records, joined by “and”; a condition that tells them apart may be missing. Equal values may be shown once. Inconclusive results and toxic doses are left out.

For the assay, the system named is L1210 leukemia ip in BDF1 mice, survival T/C. The assay is described as follows: NCI In Vivo Anticancer Drug Screen. Data for tumor model L1210 Leukemia (intraperitoneal) in B6D2F1 (BDF1) mice. To be noted: endpoint: mean survival time, higher = longer survival. In a few lines: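 Mice bearing the transplanted tumor received compound or vehicle. Survival of the treated group was divided by that of the vehicle-treated control group to give the ratio.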

Where [1] appears, read: dose: 200.0 mg/kg/injection, schedule: Q01DX009 (ip), vehicle: Klucel (hydroxypropylcellulose) (HPC).
Setting [2] is: dose: 25.0 mg/kg/injection, schedule: Q01DX009 (ip), vehicle: saline.
Setting [3] is: dose: 50.0 mg/kg/injection, schedule: Q01DX009 (ip), vehicle: saline.
Setting [4] is: dose: 100.0 mg/kg/injection, schedule: Q01DX001 (ip), vehicle: saline.
[5] abbreviates: dose: 100.0 mg/kg/injection, schedule: Q01DX009 (ip), vehicle: saline.
Where [6] appears, read: dose: 100.0 mg/kg/injection, schedule: Q01DX001 (ip), vehicle: carboxymethylcellulose (CMC).
[7] abbreviates: dose: 100.0 mg/kg/injection, schedule: Q04DX003 (ip), vehicle: saline.
[8] abbreviates: dose: 200.0 mg/kg/injection, schedule: Q01DX001 (ip), vehicle: saline.
[9] abbreviates: dose: 200.0 mg/kg/injection, schedule: Q01DX009 (ip), vehicle: saline.
[10] abbreviates: dose: 200.0 mg/kg/injection, schedule: Q04DX003 (ip), vehicle: saline.
The mark [11] stands for this setting: dose: 400.0 mg/kg/injection, schedule: Q01DX001 (ip), vehicle: saline.
Setting [12] is: dose: 400.0 mg/kg/injection, schedule: Q01DX009 (ip), vehicle: saline.
The mark [13] stands for this setting: dose: 400.0 mg/kg/injection, schedule: Q04DX003 (ip), vehicle: saline.
The mark [14] stands for this setting: dose: 50.0 mg/kg/injection, schedule: Q01DX009 (ip), vehicle: Klucel (hydroxypropylcellulose) (HPC).
[15] abbreviates: dose: 100.0 mg/kg/injection, schedule: Q01DX009 (ip), vehicle: Klucel (hydroxypropylcellulose) (HPC).
[16] abbreviates: dose: 50.0 mg/kg/injection, schedule: Q01DX009 (ip), vehicle: saline with Tween-80.
[17] abbreviates: dose: 100.0 mg/kg/injection, schedule: Q04DX003 (ip), vehicle: Klucel (hydroxypropylcellulose) (HPC).
Setting [18] is: dose: 200.0 mg/kg/injection, schedule: Q04DX003 (ip), vehicle: Klucel (hydroxypropylcellulose) (HPC).
[19] abbreviates: dose: 400.0 mg/kg/injection, schedule: Q04DX003 (ip), vehicle: Klucel (hydroxypropylcellulose) (HPC).

Regarding `CC(=O)OCC1OC(N2C(=O)/C(=C/c3ccc(N(C)C)cc3)SC2=S)C(OC(C)=O)C(OC(C)=O)C1OC(C)=O` (stereo not drawn), the T/C is, setting by setting: (dose: 25.0 mg/kg/injection, schedule: Q01DX005 (ip), vehicle: other) 100 % of control; (dose: 50.0 mg/kg/injection, schedule: Q01DX005 (ip), vehicle: other) 98 % of control; (dose: 100.0 mg/kg/injection, schedule: Q01DX005 (ip), vehicle: other) 94 % of control; (dose: 200.0 mg/kg/injection, schedule: Q01DX005 (ip), vehicle: other) 95 % of control; (dose: 400.0 mg/kg/injection, schedule: Q01DX005 (ip), vehicle: other) 93 % of control.

Regarding `Nc1ccccc1SC(CC(=O)c1ccccc1)c1cccc([N+](=O)[O-])c1` (stereo not drawn), the T/C runs as follows: (dose: 100.0 mg/kg/injection, schedule: Q01DX005 (ip), vehicle: Klucel (hydroxypropylcellulose) (HPC)) 112 % of control; (dose: 100.0 mg/kg/injection, schedule: Q04DX002 (ip), vehicle: Klucel (hydroxypropylcellulose) (HPC)) 95 % of control; (dose: 200.0 mg/kg/injection, schedule: Q01DX005 (ip), vehicle: Klucel (hydroxypropylcellulose) (HPC)) 105 % of control; under setting [1], 87 % of control; (dose: 200.0 mg/kg/injection, schedule: Q04DX002 (ip), vehicle: Klucel (hydroxypropylcellulose) (HPC)) 110 % of control; (dose: 400.0 mg/kg/injection, schedule: Q01DX005 (ip), vehicle: Klucel (hydroxypropylcellulose) (HPC)) 91 % of control. Besides, the T/C (dose: 400.0 mg/kg/injection, schedule: Q04DX002 (ip), vehicle: Klucel (hydroxypropylcellulose) (HPC)) was 89 % of control.

For `CCCCN1CC1(C)C` (stereo not drawn), the T/C under setting [2] is 105 % of control, the T/C under setting [3] was 105 % of control, the T/C under setting [4] is 98 % of control and the T/C under setting [5] was 106 % of control.

For `CCOCC(=O)C(C#N)c1ccc(Cl)c(Cl)c1` (stereo not drawn), the T/C under setting [6] was 94 % of control.

In the case of `N[C@@H](Cc1ccc(O)c(O)c1)C(=O)O`, the T/C under setting [2] is 101 % of control; the T/C (dose: 25.0 mg/kg/injection, schedule: Q04DX003 (ip), vehicle: saline) is 94 % of control; the T/C (dose: 50.0 mg/kg/injection, schedule: Q01DX001 (ip), vehicle: saline) is 87 % of control; the T/C under setting [3] was 100 % of control and 105 % of control; the T/C (dose: 50.0 mg/kg/injection, schedule: Q04DX003 (ip), vehicle: saline) was 103 % of control and 105 % of control; the T/C under setting [4] was 94 % of control. In addition, the T/C is 92 % of control and 97 % of control under setting [5]; 110 % of control under setting [7]; 113 % of control under setting [8]; 97 % of control and 105 % of control under setting [9]; 98 % of control and 105 % of control under setting [10]; 94 % of control under setting [11]. Further, the T/C is 108 % of control and 112 % of control under setting [12]; 94 % of control and 97 % of control under setting [13].

In the case of `CS(=O)(=O)OCCCCCCCCCOS(C)(=O)=O`, the T/C was 96 % of control (dose: 25.0 mg/kg/injection, schedule: Q01DX009 (ip), vehicle: Klucel (hydroxypropylcellulose) (HPC)); 103 % of control under setting [14]; 95 % of control (dose: 75.0 mg/kg/injection, schedule: Q01DX001 (ip), vehicle: other); 105 % of control under setting [15]; 108 % of control (dose: 150.0 mg/kg/injection, schedule: Q01DX001 (ip), vehicle: other).

Take `COc1cc(C(C)=O)cc([N+](=O)[O-])c1O`: the T/C is 107 % of control (dose: 100.0 mg/kg/injection, schedule: Q04DX003 (ip), vehicle: saline with Tween-80) and 105 % of control (dose: 200.0 mg/kg/injection, schedule: Q04DX003 (ip), vehicle: saline with Tween-80).

For `CC(C)CC(=O)c1ccccc1`, the T/C was 104 % of control (dose: 50.0 mg/kg/injection, schedule: Q04DX002 (ip), vehicle: saline); 97 % of control (dose: 100.0 mg/kg/injection, schedule: Q04DX002 (ip), vehicle: saline); 111 % of control (dose: 200.0 mg/kg/injection, schedule: Q04DX002 (ip), vehicle: saline).

As to `CNC(Cc1ccccc1)c1ccco1` (stereo not drawn), the T/C under setting [14] was 104 % of control; the T/C under setting [15] is 104 % of control; the T/C (dose: 100.0 mg/kg/injection, schedule: Q04DX002 (ip), vehicle: saline with Tween-80) is 107 % of control; the T/C under setting [1] was 102 % of control; the T/C (dose: 200.0 mg/kg/injection, schedule: Q04DX002 (ip), vehicle: saline with Tween-80) was 110 % of control.

In the case of `c1cc[c]([Ge]([O][Ge]([c]2ccccc2)([c]2ccccc2)[c]2ccccc2)([c]2ccccc2)[c]2ccccc2)cc1`, the T/C was 94 % of control under setting [16]; 96 % of control (dose: 100.0 mg/kg/injection, schedule: Q01DX009 (ip), vehicle: saline with Tween-80); 96 % of control (dose: 200.0 mg/kg/injection, schedule: Q01DX009 (ip), vehicle: saline with Tween-80).

With `Nc1nc(N)c(N=Nc2c(Br)cc(S(N)(=O)=O)cc2Br)c(N)n1`, the T/C under setting [6] is 94 % of control; the T/C (dose: 200.0 mg/kg/injection, schedule: Q01DX001 (ip), vehicle: carboxymethylcellulose (CMC)) is 94 % of control; the T/C (dose: 400.0 mg/kg/injection, schedule: Q01DX001 (ip), vehicle: carboxymethylcellulose (CMC)) was 100 % of control.

As to `O=NN(CCCl)C(=O)N(C1CCCCC1)C1CCCCC1`, the T/C reads like this: (dose: 177.0 mg/kg/injection, schedule: Q01DX009 (ip), vehicle: carboxymethylcellulose (CMC)) 121 % of control; (dose: 400.0 mg/kg/injection, schedule: Q01DX009 (ip), vehicle: carboxymethylcellulose (CMC)) 117 % of control; (dose: 600.0 mg/kg/injection, schedule: Q01DX009 (ip), vehicle: carboxymethylcellulose (CMC)) 166 % of control.

In the case of `O=[N+]([O-])c1ccc2nc[nH]c2c1`, the T/C reads like this: (dose: 25.0 mg/kg/injection, schedule: Q01DX009 (ip), vehicle: saline with Tween-80) 89 % of control; under setting [16], 96 % of control.

For the molecule `CN1CCN(CCSC(=O)C(O)(c2ccccc2)C2CCCC2)CC1` (stereo not drawn), where the note is “dose: 150.0 mg/kg/injection, schedule: Q01DX001 (ip), vehicle: saline”, the T/C was 102 % of control.

`Cc1ccc(NCc2cccc3ccccc23)c(C)c1`: the T/C is, setting by setting: under setting [5], 96 % of control; under setting [7], 104 % of control; under setting [9], 97 % of control; under setting [10], 102 % of control; under setting [12], 94 % of control; under setting [13], 96 % of control.

Regarding `O=C(O)CCCN1C/C(=C\c2ccc(Cl)cc2)C(=O)C1=O`, the T/C is 97 % of control under setting [4]; 98 % of control under setting [7]; 102 % of control under setting [8]; 98 % of control under setting [10]; 107 % of control under setting [11]; 96 % of control under setting [13].

Regarding `CCN(N=Nc1ccc(C)cc1)N=Nc1ccc(C)cc1`, the T/C reads like this: under setting [15], 93 % of control; under setting [17], 100 % of control; under setting [1], 88 % of control; under setting [18], 100 % of control; (dose: 400.0 mg/kg/injection, schedule: Q01DX009 (ip), vehicle: Klucel (hydroxypropylcellulose) (HPC)) 88 % of control; under setting [19], 93 % of control.

Turning to `Cc1cc([N+](=O)[O-])c(C)cc1Cl`, the T/C runs as follows: (dose: 100.0 mg/kg/injection, schedule: Q01DX009 (ip), vehicle: saline sonified) 98 % of control; under setting [17], 98 % of control; (dose: 200.0 mg/kg/injection, schedule: Q01DX009 (ip), vehicle: saline sonified) 100 % of control; under setting [18], 98 % of control; (dose: 400.0 mg/kg/injection, schedule: Q01DX009 (ip), vehicle: saline sonified) 100 % of control; under setting [19], 98 % of control.

In the case of `O=C1C=CC(=O)C(SCCSC2=CC(=O)C(SCCSC3=CC(=O)C=CC3=O)=CC2=O)=C1`, the T/C under setting [4] was 98 % of control, the T/C under setting [8] was 101 % of control and the T/C under setting [11] is 95 % of control.

Turning to `[O-][N+](=C\c1ccccc1)/[N+]([O-])=C\c1ccccc1`, the T/C reads like this: under setting [4], 98 % of control; under setting [8], 95 % of control; under setting [11], 98 % of control.
